Here are results for eleven compounds from article PMC6151511, “Rational Design of Nucleoside–Bile Acid Conjugates Incorporating a Triazole Moiety for Anticancer Evaluation and SAR Exploration” (Molecules : A Journal of Synthetic Chemistry and Natural …, 2017).

The test system of test [1] is K562 leukemia cells. Also on record: method as in doi:10.1039/c3nj00513e. Conditions: MTT; ref [6]; cited from earlier work.
In test [2] the test system is HCT116 colon carcinoma. The arrangement: method as in doi:10.1039/c3nj00513e. Conditions: MTT; ref [6]; cited from earlier work.
Test [3] deals with Normal human skin fibroblast cells. Also on record: method as in doi:10.1039/c3nj00513e. Particulars: MTT; ref [6]; read-out: IC50 FIBRO; cited from earlier work.
The test system of test [4] is HCT116 colon carcinoma. Description: MTT assay, cell growth inhibition of HCT116 colon carcinoma. Format: cell-based. Particulars: MTT, 72 h incubation, mean of three independent experiments ± SD, IC50 > 50 means inhibition <20% at 50 μM. How it is done:
(§1) All conjugated compounds prepared via click chemistry and listed in Table 1 were evaluated in vitro for their cytotoxic activity against K562 leukemia cells and the colon cancer cell line HCT116. Normal human skin fibroblast cells were chosen as a control and cisplatin served as a reference compound. The cytotoxicity was evaluated using the MTT assay (details are reported in the Materials and Methods section). In all experiments the cell growth inhibition of K562 and HCT116 was determined for each compound at concentrations of 10, 25 and 50 μM after 72 h of treatment and up to 100 μM in the case of fibroblasts.
(§2) Cell growth inhibition assays were carried out using the leukemia cell line K562 and colon carcinoma HCT116. Cell lines were obtained from ATCC (Manassas, VA, USA) and maintained in RPMI 1640, supplemented with 10% fetal bovine serum (FBS), penicillin (100 Units mL^−1), streptomycin (100 μg mL^−1) and glutamine (2 mM) (complete medium); the pH of the medium was 7.2 and the incubation was performed at 37 °C in a 5% CO2 atmosphere. Adherent cells were routinely used at 70% of confluence and passaged every 3 days by treatment with 0.05% Trypsin-EDTA (Lonza, Walkersville, MD, USA). K562 cells were routinely fed every 3 days.
(§3) The antiproliferative activity of the compounds was tested using the 3-(4,5-dimethylthiozol-2-yl)2,5-diphenyltetrazolium bromide solution (MTT) assay. K562 and HCT116 were seeded in triplicate in 96-well trays respectively at the density of 5 × 10^3 and 10^4 in 50 μL of complete medium. Stock solutions (50 mM) of each compound were made in DMSO and diluted in complete medium to give final concentrations of 50, 25 and 10 μM. Untreated cells were placed in every plate as a negative control. The cells were exposed to the compounds, in 100 μL total volume, for 72 h.

Test [5] has as its system K562 leukemia cells. Description: MTT assay, cell growth inhibition of K562 leukemia cells. Format: cell-based. Conditions: MTT, 72 h incubation, mean of three independent experiments ± SD, IC50 > 50 means inhibition <20% at 50 μM, read-out: IC50 K562. How it is done: as §1, §2, §3
A general note: Tetrazolium dyes change colour on reduction, which living cells bring about.

For the next test, the system named is K562 cells. Description: Annexin V-FITC/PI apoptosis assay by flow cytometry. The format is cell-based. Particulars: 25 and 50 μM, 24 h. The protocol:
In this study we also tested in vitro the nucleoside-alkyne derivatives (namely ALK-A, ALK-G, ALK-dG and ALK-dU) and the N3-BA building blocks (namely 3α-N3-CDC, 3α-N3-UDC, 3α-N3-TUDCA, 23-N3-nor-CDC and 23-N3-nor-UDC). […] (Table 1). To determine whether the antiproliferative activity induced by dA-nor-CDC was related to apoptosis, as previously reported for the corresponding dA-CDC conjugate, K562 cells were treated with compound dA-nor-CDC (25 and 50 μM) for 24 h, then assayed by flow cytometry analysis with Annexin V-FITC staining.
The percentage of apoptotic cells was assessed using the Annexin V assay (Clontech Laboratories, Inc. A Takara Bio Company, Mountain View, CA, USA). Propidium iodide (PI) was used to avoid necrotic cell detection (Annexin−/PI+). The drug-induced apoptotic rate (Annexin+/PI− and Annexin V+/PI+) was compared with the apoptosis in the absence of the drugs used as control (spontaneous apoptosis). K562 cells were cultured in RPMI + 10% FBS in a 6-weels plate for 24 h in the presence of compounds dA-nor-CDC at concentration of 50 and 25 μM. […] Incubation with annexin V for 15 min on ice in dark was directly followed by flow cytometric analysis of the cells with a FACScan (Becton Dickinson, San Jose, CA, USA) at 488 nm and quantified using the Cell Quest Pro software (Becton Dickinson).
In general terms: In flow cytometry, cells or beads pass a laser one at a time.

For test [6], the system named is Normal human skin fibroblast cells. The experiment in a line: MTT assay, cytotoxicity on normal fibroblasts (control). Format: cell-based. Particulars: MTT, 72 h incubation, up to 100 μM, mean of three independent experiments ± SD, IC50 > 100 means inhibition <10% at 100 μM, read-out: IC50 FIBRO. How it is done: as §1, §3
[7] abbreviates: Homo sapiens, Skin fibroblast, 72 h.

For orientation: IC50 means the concentration that gives 50% inhibition.

Read-outs that look alike come from different tables or passages of the source.

Regarding `C#CCCCCC#Cc1nc2c(N)ncnc2n1[C@H]1C[C@H](O)[C@@H](CO)O1` [ALK-dA, 8-(1,7-Octadynyl)-2′-deoxyadenosine], the results for the IC50 (in the test on K562 leukemia cells [1]; in the test on HCT116 colon carcinoma [2]; in test [3]) were over 50 µM, over 50 µM and over 100 µM, respectively.
For the compound `COC(=O)CCC(C)[C@H]1CCC2C3C(CC[C@@]21C)[C@@]1(C)CC[C@@H](n2cc(CCCCC#Cc4nc5c(N)ncnc5n4[C@H]4C[C@H](O)[C@@H](CO)O4)nn2)CC1C[C@H]3O` (some centres unmarked) [dA-CDC], the figures for the IC50 (with K562 leukemia cells [1]; in the test with HCT116 colon carcinoma [2]; in test [3]) were 8.5 ± 4 µM, over 200 µM and over 200 µM, respectively.
Turning to `COC(=O)CCC(C)[C@H]1CCC2C3C(CC[C@@]21C)[C@@]1(C)CC[C@@H](n2cc(CCCCC#Cc4nc5c(N)ncnc5n4[C@H]4C[C@H](O)[C@@H](CO)O4)nn2)CC1C[C@@H]3O` (some centres unmarked) [dA-UDC], the half-maximal inhibitory concentration (IC50) is over 100 µM with K562 leukemia cells [1], over 200 µM with HCT116 colon carcinoma [2] and over 200 µM in test [3].
Turning to `CC(CCn1cc(CCCCC#Cc2nc3c(N)ncnc3n2[C@H]2C[C@H](O)[C@@H](CO)O2)nn1)[C@H]1CCC2C3C(CC[C@@]21C)[C@@]1(C)CC[C@@H](O)CC1C[C@H]3O` (some centres unmarked) [dA-nor-CDC], the IC50 is at most 25 µM in the test with HCT116 colon carcinoma [4] (Homo sapiens, HCT-116, 72 h); 17 ± 2.5 µM with HCT116 colon carcinoma [4]; at most 25 µM in the test with K562 leukemia cells [5] (Homo sapiens, K562, 72 h); 16.2 ± 2.2 µM with K562 leukemia cells [5]; about 100 µM in test [6] (setting [7]); 91.5 ± 3.5 µM in test [6]. Moreover, the “induction of apoptosis (in words)” value in the test on K562 cells is recorded as “induced apoptosis in a dose dependent manner”.
In the case of `COC(=O)CCC(C)[C@H]1CCC2C3C(CC[C@@]21C)[C@@]1(C)CC[C@@H](n2cc(CCCCC#Cc4nc5c(=O)[nH]c(N)nc5n4[C@H]4C[C@H](O)[C@@H](CO)O4)nn2)CC1C[C@@H]3O` (some centres unmarked) [dG-UDC], the IC50 is over 50 µM in the test with HCT116 colon carcinoma [4] (Homo sapiens, HCT-116, 72 h); over 50 µM with K562 leukemia cells [5] (Homo sapiens, K562, 72 h); over 100 µM in test [6] (setting [7]).
Regarding `CC(CCn1cc(CCCCC#Cc2nc3c(=O)[nH]c(N)nc3n2[C@H]2C[C@H](O)[C@@H](CO)O2)nn1)[C@H]1CCC2C3C(CC[C@@]21C)[C@@]1(C)CC[C@@H](O)CC1C[C@H]3O` (some centres unmarked) [dG-nor-CDC], the IC50 in the test with HCT116 colon carcinoma [4] (Homo sapiens, HCT-116, 72 h) is over 50 µM; with K562 leukemia cells [5] (Homo sapiens, K562, 72 h), over 50 µM; in test [6] (setting [7]), over 100 µM.
For `CC(CCn1cc(CCCCC#Cc2nc3c(=O)[nH]c(N)nc3n2[C@H]2C[C@H](O)[C@@H](CO)O2)nn1)[C@H]1CCC2C3C(CC[C@@]21C)[C@@]1(C)CC[C@@H](O)CC1C[C@@H]3O` (some centres unmarked) [dG-nor-UDC], the IC50 was over 50 µM with HCT116 colon carcinoma [4] (Homo sapiens, HCT-116, 72 h); over 50 µM in the test with K562 leukemia cells [5] (Homo sapiens, K562, 72 h); over 100 µM in test [6] (setting [7]).
`COC(=O)CCC(C)[C@H]1CCC2C3C(CC[C@@]21C)[C@@]1(C)CC[C@@H](n2cc(CCCCC#Cc4cn([C@H]5C[C@H](O)[C@@H](CO)O5)c(=O)[nH]c4=O)nn2)CC1C[C@H]3O` (some centres unmarked) [dU-CDC]: the 50% inhibitory concentration (IC50) with HCT116 colon carcinoma [4] (Homo sapiens, HCT-116, 72 h) is over 50 µM; in the test on K562 leukemia cells [5] (Homo sapiens, K562, 72 h), over 50 µM; in test [6] (setting [7]), over 100 µM.
In the case of `COC(=O)CCC(C)[C@H]1CCC2C3C(CC[C@@]21C)[C@@]1(C)CC[C@@H](n2cc(CCCCC#Cc4cn([C@H]5C[C@H](O)[C@@H](CO)O5)c(=O)[nH]c4=O)nn2)CC1C[C@@H]3O` (some centres unmarked) [dU-UDC], the IC50 with HCT116 colon carcinoma [4] (Homo sapiens, HCT-116, 72 h) was at most 25 µM; in the test on HCT116 colon carcinoma [4] it was 23.5 ± 1.6 µM; in the test with K562 leukemia cells [5] (Homo sapiens, K562, 72 h) it was at most 25 µM; with K562 leukemia cells [5] it was 21.5 ± 2 µM; in test [6] (setting [7]) it was about 100 µM; in test [6] it was 91.5 ± 4.5 µM.
Take `CC(CCn1cc(CCCCC#Cc2cn([C@H]3C[C@H](O)[C@@H](CO)O3)c(=O)[nH]c2=O)nn1)[C@H]1CCC2C3C(CC[C@@]21C)[C@@]1(C)CC[C@@H](O)CC1C[C@H]3O` (some centres unmarked) [dU-nor-CDC]: the half-inhibitory concentration (IC50) is over 50 µM with HCT116 colon carcinoma [4] (Homo sapiens, HCT-116, 72 h); 42.9 ± 1.9 µM in the test with K562 leukemia cells [5] (Homo sapiens, K562, 72 h); over 100 µM in test [6] (setting [7]).
Turning to `CC(CCn1cc(CCCCC#Cc2cn([C@H]3C[C@H](O)[C@@H](CO)O3)c(=O)[nH]c2=O)nn1)[C@H]1CCC2C3C(CC[C@@]21C)[C@@]1(C)CC[C@@H](O)CC1C[C@@H]3O` (some centres unmarked) [dU-nor-UDC], the IC50 in the test with HCT116 colon carcinoma [4] (Homo sapiens, HCT-116, 72 h) was 43 ± 3.5 µM; in the test with K562 leukemia cells [5] (Homo sapiens, K562, 72 h), at most 25 µM; in the test with K562 leukemia cells [5], 24.8 ± 1.5 µM; in test [6] (setting [7]), over 100 µM.
